PubChem BioAssay AID248 (DTP/NCI, 2004)
Values joined by “and” are separate entries in the source; they are usually repeats but may differ in a detail not shown here. Equal values may be shown once. Inconclusive results and toxic doses are left out. Rule as the data show it: active = T/C of 150% or more; inactive = T/C below 125%.

Tested on: L1210 leukemia ip in BDF1 mice, survival T/C
Assay: NCI In Vivo Anticancer Drug Screen. Data for tumor model L1210 Leukemia (intraperitoneal) in B6D2F1 (BDF1) mice
Settings: endpoint: mean survival time, higher = longer survival
Outline: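 Read-out is survival time, reported as the treated-group measurement over the vehicle-control measurement.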

[1] = dose: 100.0 mg/kg/injection, schedule: Q01DX001 (ip), vehicle: saline

Measured: T/C

CCCCCCCCCCCCCCCOc1cc(C=O)ccc1OC
inactive: dose: 100.0 mg/kg/injection, schedule: Q01DX001 (ip), vehicle: Klucel (hydroxypropylcellulose) (HPC) 87 % of control | dose: 200.0 mg/kg/injection, schedule: Q01DX001 (ip), vehicle: Klucel (hydroxypropylcellulose) (HPC) 87 % of control

O=C1C(Cl)=CC(=NS(=O)(=O)c2ccccc2)C=C1Cl
inactive: dose: 6.25 mg/kg/injection, schedule: Q01DX009 (ip), vehicle: saline with Tween-80 96 % of control | dose: 12.5 mg/kg/injection, schedule: Q01DX009 (ip), vehicle: saline with Tween-80 96 % of control

COc1cccc2c1CCC1=C2CCC2CC(=O)CCC12C (centres undefined)
inactive: dose: 100.0 mg/kg/injection, schedule: Q01DX001 (sc), vehicle: steriod suspending solution 98 % of control | dose: 200.0 mg/kg/injection, schedule: Q01DX001 (sc), vehicle: steriod suspending solution 100 % of control | dose: 400.0 mg/kg/injection, schedule: Q01DX001 (sc), vehicle: steriod suspending solution 100 % of control

C(=N/N(Cc1ccccc1)Cc1ccccc1)/c1ccccc1
inactive: [1] 94 % of control | dose: 200.0 mg/kg/injection, schedule: Q01DX001 (ip), vehicle: saline 103 % of control | dose: 400.0 mg/kg/injection, schedule: Q01DX001 (ip), vehicle: saline 101 % of control

COc1cccc(CC2=C3CCCN(C(=O)c4ccccc4)C3CCC2=O)c1 (centres undefined)
inactive: dose: 100.0 mg/kg/injection, schedule: Q01DX009 (ip), vehicle: saline sonified 98 % of control | dose: 200.0 mg/kg/injection, schedule: Q01DX009 (ip), vehicle: saline sonified 96 % of control | dose: 400.0 mg/kg/injection, schedule: Q01DX009 (ip), vehicle: saline sonified 96 % of control

O=Cc1cscc1-c1cscc1C=O
inactive: dose: 50.0 mg/kg/injection, schedule: Q01DX009 (ip), vehicle: saline with Tween-80 91 % of control | dose: 100.0 mg/kg/injection, schedule: Q01DX009 (ip), vehicle: saline with Tween-80 95 % of control | dose: 200.0 mg/kg/injection, schedule: Q01DX009 (ip), vehicle: saline with Tween-80 98 % of control

Cc1cc(CSC2=NCCCN2)c(CSC2=NCCCN2)cc1C
inactive: dose: 6.25 mg/kg/injection, schedule: Q01DX001 (ip), vehicle: saline 96 % of control | dose: 6.25 mg/kg/injection, schedule: Q01DX009 (ip), vehicle: saline 100 % of control and 111 % of control | dose: 6.25 mg/kg/injection, schedule: Q04DX002 (ip), vehicle: saline with Tween-80 94 % of control | dose: 6.25 mg/kg/injection, schedule: Q04DX003 (ip), vehicle: saline 91 % of control | dose: 12.5 mg/kg/injection, schedule: Q01DX001 (ip), vehicle: saline 97 % of control | dose: 12.5 mg/kg/injection, schedule: Q01DX009 (ip), vehicle: saline 102 % of control and 92 % of control | dose: 12.5 mg/kg/injection, schedule: Q04DX002 (ip), vehicle: saline with Tween-80 97 % of control | dose: 12.5 mg/kg/injection, schedule: Q04DX003 (ip), vehicle: saline 90 % of control | dose: 25.0 mg/kg/injection, schedule: Q01DX001 (ip), vehicle: saline 99 % of control and 108 % of control | dose: 25.0 mg/kg/injection, schedule: Q01DX009 (ip), vehicle: saline 96 % of control and 101 % of control | dose: 25.0 mg/kg/injection, schedule: Q04DX002 (ip), vehicle: saline with Tween-80 100 % of control | dose: 25.0 mg/kg/injection, schedule: Q04DX002 (ip), vehicle: saline 87 % of control | dose: 25.0 mg/kg/injection, schedule: Q04DX003 (ip), vehicle: saline 89 % of control | [1] 93 % of control

O=C(NCCCCCCNC(=O)OCc1ccccc1)OCc1ccccc1
inactive: dose: 10.0 mg/kg/injection, schedule: Q01DX Z (ip), vehicle: saline 98 % of control | dose: 30.0 mg/kg/injection, schedule: Q01DX Z (ip), vehicle: saline 96 % of control | dose: 100.0 mg/kg/injection, schedule: Q01DX Z (ip), vehicle: saline 100 % of control | dose: 300.0 mg/kg/injection, schedule: Q01DX Z (ip), vehicle: saline 98 % of control

CCOP(=S)(S)OCC.[Cr]
inactive: dose: 50.0 mg/kg/injection, schedule: Q01DX001 (ip), vehicle: other 98 % of control | dose: 100.0 mg/kg/injection, schedule: Q01DX001 (ip), vehicle: other 98 % of control | dose: 200.0 mg/kg/injection, schedule: Q01DX001 (ip), vehicle: other 102 % of control | dose: 400.0 mg/kg/injection, schedule: Q01DX001 (ip), vehicle: other 96 % of control

CCN(CC)C(=O)Nc1ccc(C(=O)O)c(O)c1
inactive: dose: 100.0 mg/kg/injection, schedule: Q04DX003 (ip), vehicle: Klucel (hydroxypropylcellulose) (HPC) 95 % of control | dose: 200.0 mg/kg/injection, schedule: Q04DX003 (ip), vehicle: Klucel (hydroxypropylcellulose) (HPC) 90 % of control | dose: 400.0 mg/kg/injection, schedule: Q04DX003 (ip), vehicle: Klucel (hydroxypropylcellulose) (HPC) 90 % of control
